Data: patent US20170014375A1, “PHARMACEUTICAL COMPOSITION COMPRISING EFFECTIVE DOSE OF POMIFERIN FOR TREATING CANCERS” (Macau University of Science and Technology, priority 2015, published 2017)

Columns and labels:
[1] = system: MCF-7 (human breast cancer) cells; assay: MTT cytotoxicity assay, MCF-7; type: cell-based; conditions: MCF7, 72 h, MCF-7 (Breast), 3 days, read-out: Means of IC50
Method: (§1) Pomiferin is dissolved in DMSO at a final concentration of 100 mmol/L and stored at −20° C. Cytotoxicity is assessed using the 3-(4,5-dimethylthiazol-2-yl)-2,5-diphenyltetrazolium bromide assay. 4000-8000 HeLa (human cervical cancer), MCF-7 (human breast cancer), HepG2 and Hep3B (human liver cancer), H1299 and A549 (human lung cancer), LNCap (human prostate cancer) and LLC-1 (mouse Lewis lung carcinoma) cells are seeded on 96-well plates per well. After overnight pre-incubation, the cells are exposed to different concentrations of pomiferin ([…]) for 3 days. Subsequently, 10 μL of MTT reagents is added to each well and incubated at 37° C. for 4 hours followed by the addition of 100 μL solubilization buffer (10% SDS in 0.01 mol/L HCl) and overnight incubation. Absorbance at 585 nm is determined from each well the next day. The percentage of cell viability is calculated using the following formula: Cell viability (%)=Cells number treated/Cells number DMSO control×100. Data are obtained from three independent experiments.

[2] = system: Hep3B (human liver cancer) cells; assay: MTT cytotoxicity assay, Hep3B; type: cell-based; conditions: 72 h, Hep 3B (Liver), 3 days, read-out: Means of IC50
Method: as §1

[3] = system: A549 (human lung cancer) cells; assay: MTT cytotoxicity assay, A549; type: cell-based; conditions: 72 h, 3 days, read-out: Means of IC50
Method: as §1

[4] = system: LNCap (human prostate cancer) cells; assay: MTT cytotoxicity assay, LNCap; type: cell-based; conditions: 72 h, 3 days, read-out: Means of IC50
Method: as §1

[5] = system: LLC-1 (mouse Lewis lung carcinoma) cells; assay: MTT cytotoxicity assay, LLC-1; type: cell-based; conditions: LLC1, 72 h, LLC-1 (Lung), 3 days, read-out: Means of IC50
Method: as §1

[6] = system: Bax-Bak wild-type mouse embryonic fibroblasts; assay: MTT cytotoxicity assay, Bax-Bak WT MEFs; type: cell-based; conditions: Fibroblast, 72 h, 3 days, read-out: Means of IC50
Method: The test compound of pomiferin is dissolved in DMSO at a final concentration of 100 mmol/L and stored at −20° C. Cytotoxicity is assessed using the 3-(4,5-dimethylthiazol-2-yl)-2,5-diphenyltetrazolium bromide assay as previously described^29. 2500 of caspase wild-type (caspase WT), caspase-3 deficient (caspase 3KO), caspase-7 deficient (caspase 7KO), caspase-3/-7 deficient (caspase 3/7 DKO), caspase-8 deficient (caspase 8KO), Bax-Bak wild-type (Bak-Bak WT) and Bax-Bak double knock out (Bak-Bak DKO) mouse embryonic fibroblasts (MEFs) are seeded on 96-well plates per well. After overnight pre-incubation, the cells are exposed to different concentrations of pomiferin (namely 100, 50, 25, 12.5, 6.25, 3.125, 1.5625, 0.78, 0.39, 0.195, 0.079, 0.039 μmol/L) for 3 days. Subsequently, 10 μL of MTT reagents is added to each well and incubated at 37° C. for 4 hours, followed by the addition of 100 μL solubilization buffer (10% SDS in 0.01 mol/L HCl) and overnight incubation. Absorbance at 585 nm is determined from each well on the following day. The percentage of cell viability is calculated using the following formula: Cell viability (%)=Cells numbertreated/Cells numberDMSO control×100. Data is obtained from three independent experiments.

[7] = system: panel of human and mouse cancer cells; assay: MTT cytotoxicity assay, panel of human and mouse cancer cells; type: cell-based; conditions: 72 hours, read-out: mean IC50 value range over the panel
Method: as §1

[8] = system: drug-resistant HCT-116 p53−/− colon cancer cells; assay: Annexin V/PI flow cytometry cell death, HCT-116 p53−/−; type: cell-based; conditions: 10 μM pomiferin alone, 24 h, FIGS. 9A & B
Method: (§2) Cell death is measured using an annexin V staining kit (BD Biosciences, San Jose, Calif., USA). Briefly, drug-resistant HCT-116 p53−/− deficient colon cancer cells are treated with the 10 μM pomiferin in the presence or absence of 5 mM autophagic inhibitor 3-MA or 10 M calcium chelator BAPTA/AM for 24 h. Cells are then harvested and analysed by multiparametric flow cytometry using FITC-Annexin V and Propidium iodide staining (BD Biosciences, San Jose, Calif., USA) according to the manufacturer's instructions. Flow cytometry is then carried out using a FACSCalibur flow cytometer (BD Biosciences, San Jose, Calif., USA). Data acquisition and analysis is performed with CellQuest (BD Biosciences, San Jose, Calif., USA). Data are obtained from three independent experiments.

[9] = system: Atg7 wild-type (Atg7+/+) mouse embryonic fibroblasts; assay: Annexin V/PI flow cytometry cell death, Atg7+/+ MEFs; type: cell-based; conditions: 2 μM, 24 h, FIG. 6B
Method: as §2, with “viability” for “death”, “Atg7 wild-type (Atg7+/+ or Atg7-wt) and Atg7” for “drug-resistant HCT-116 p53−/−”, “(Atg7−/− or Atg7-ko) mouse embryonic fibroblasts (MEFs)” for “colon cancer cells”, “2” for “10”, “pomiferin” for “pomiferin in the presence or absence of 5 mM autophagic inhibitor 3-MA or 10 M calcium chelator BAPTA/AM”

HeLa cells = assay: Cytosolic calcium detection by flow cytometry (Fluo-3); type: cell-based, human; conditions: 10 μM, 10 min to 4 h, FIG. 4A
Method: Changes in intracellular free calcium are measured by a fluorescent dye, Fluo-3, as described previously^21. Briefly, HeLa cells are washed twice with MEM medium after pomiferin treatment (10 μM) for various times (10 min, 0.5 h, 1 h, 2 h, 4 h). Then cell suspensions are incubated with 5 μM Fluo-3 at 37° C. for 30 min. Then the cells are washed twice with HBSS. After re-suspended cell samples are subjected to FACS analysis, at least 10,000 events are analyzed.

In the case of `CC(C)=CCc1c2c(c3occ(-c4ccc(O)c(O)c4)c(=O)c3c1O)C=CC(C)(C)O2` [pomiferin], the IC50 [1] is reported as 19 µM, the IC50 [2] is reported as 16.3 µM and the IC50 [3] is reported as 20.3 µM. The IC50 [4] was 16.2 µM, the IC50 [5] was 3.82 µM and the IC50 [6] was 0.44 µM. For the same compound, the IC50 [7] was 3.82 to 20.3 µM, the “cell death (in words)” value [8] was “significantly induced cell death” and the “cell death (in words)” value [9] was “markedly induce cell death”. The cytosolic calcium level (HeLa cells) was “increase the cytosolic calcium level in a time dependent manner”.
